Consider 70 molecules from patent US20090143279A1 (priority 2007, published 2009).

“And” between values parts separate entries of the source, which are not always exact repeats. Equal entries are not always repeated.

In one test the test system is cytochrome c. Type of test: cell-based, mouse.
cytochrome c, sequence (P62897 whole entry): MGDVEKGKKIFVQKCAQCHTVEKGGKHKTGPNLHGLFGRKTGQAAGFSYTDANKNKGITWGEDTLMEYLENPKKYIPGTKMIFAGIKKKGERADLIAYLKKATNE
Details: not given
For the molecule `CO[C@H]1C[C@H](O[C@@H]2/C(C)=C/C[C@@H]3C[C@@H](C[C@]4(CC[C@H](C)[C@@H](C5CCCCC5)O4)O3)OC(=O)[C@@H]3C=C(C)/C(=N/O)[C@H]4OC/C(=C\C=C\[C@@H]2C)[C@]43O)O[C@@H](C)[C@@H]1O` [selamectin], the cyt c is listed as 0.343.

The molecule `CC(=O)N[C@@H](CC(C)C)C(=O)O` [N-acetyl-L-leucine] had a cyt c of 0.648.

Take `CN(C)C(=N)N=C(N)N` [metformin]: the “cyt c (composite Z-score vs DMSO)” value is listed as 0.597.

catechin hydrate [reference compound] displayed a cyt c of 1.085.

Consider `Cn1c(=O)c2c(ncn2C)n(C)c1=O` [caffeine], for which the “cyt c (composite Z-score vs DMSO)” value worked out at 0.292.

Regarding `Nc1nc2nc[nH]c2c(=S)[nH]1` [thioguanine], the “cyt c (composite Z-score vs DMSO)” value is given as −1.454.

Molecule `CC1(C)CC[C@]2(C(=O)O)CC[C@]3(C)C(=CC[C@@H]4[C@@]5(C)CC[C@H](O)C(C)(C)[C@@H]5CC[C@]43C)[C@@H]2C1` [oleanolic acid] showed a cyt c of 0.866.

In the case of `CCCC(C)C1(CC)C(=O)NC(=S)NC1=O` (stereo not drawn) [thiopental], the “cyt c (composite Z-score vs DMSO)” value was −0.299.

Take `C[C@@H]1CC[C@H]2C(C)(C)[C@H]3C[C@@]12CC[C@@]3(C)O` [cedrol]: the cyt c was −0.218.

`Cc1cnc(C(=O)NCCc2ccc(S(=O)(=O)NC(=O)NC3CCCCC3)cc2)cn1` [glipizide]: the “cyt c (composite Z-score vs DMSO)” value is listed as 0.287.

Take `Cc1c(C(N)=O)cc([N+](=O)[O-])cc1[N+](=O)[O-]` [dinitolmide]: the “cyt c (composite Z-score vs DMSO)” value was determined as 0.218.

With `O=c1[nH]c2ccccc2n1CCCN1CCC(n2c(=O)[nH]c3cc(Cl)ccc32)CC1` [domperidone], the cyt c came out at 0.276.

`Cc1ccc(O)c([C@H](CCN(C(C)C)C(C)C)c2ccccc2)c1` [tolterodine]: the cyt c was −0.406.

Regarding `COc1ccc(-c2cc(=O)c3c(OC)c(OC)c(OC)c(OC)c3o2)cc1OC` [nobiletin], the cyt c worked out at 0.396.

For `CC(N)C(O)c1ccccc1` (stereo not drawn) [phenylpropanolamine], the cyt c was found to be 0.947.

As to `O=C1C=CC(=O)c2c(O)cccc21` [juglone], the “cyt c (composite Z-score vs DMSO)” value was 0.266.

Molecule `C[C@H](CCC(=O)O)[C@H]1CC[C@H]2[C@@H]3[C@H](O)C[C@@H]4C[C@H](O)CC[C@]4(C)[C@H]3C[C@H](O)[C@]12C` [cholic acid] registered a cyt c of 0.514.

As to `NS(=O)(=O)c1cc(C(=O)O)c(NCc2ccco2)cc1Cl` [furosemide], the “cyt c (composite Z-score vs DMSO mock-treated wells)” value was 0.234 and 0.342.

Regarding `CC(C)c1cccc(C(C)C)c1O` [propofol], the “cyt c (composite Z-score vs DMSO)” value was found to be 0.242.

`NCCCC[C@H](N[C@@H](CCc1ccccc1)C(=O)O)C(=O)N1CCC[C@H]1C(=O)O` [lisinopril]: the “cyt c (composite Z-score vs DMSO)” value was 0.265 and 0.412.

`C=CCN1CC[C@]23c4c5ccc(O)c4O[C@H]2C(=O)CC[C@@]3(O)[C@H]1C5` [naloxone]: the cyt c was 0.362 and 0.610.

On to `CCN(CC)CCOc1ccc(C(=C(Cl)c2ccccc2)c2ccccc2)cc1` [clomiphene], for which the cyt c is on record as 0.699 and the “cyt c (composite Z-score vs DMSO mock-treated wells)” value is recorded as 0.025.

For the molecule `C[n+]1cccc(C(=O)[O-])c1` [trigonelline], the “cyt c (composite Z-score)” value was −0.072.

Molecule `CC(C)(C(=O)O)c1ccc(C(O)CCCN2CCC(C(O)(c3ccccc3)c3ccccc3)CC2)cc1` (stereo not drawn) [fexofenadine] returned a cyt c of −0.751.

Regarding `O=C(O)c1cc(O)ccc1O` [gentisic acid], the “cyt c (composite Z-score vs DMSO mock-treated wells)” value stood at 0.210.

Consider `Cc1cccc(C)c1OCC(C)N` (stereo not drawn) [mexiletine], for which the cyt c was determined as 1.114.

Regarding `CNCCC=C1c2ccccc2CCc2ccccc21` [nortriptyline], the “cyt c (composite Z-score vs DMSO)” value is 0.157 and 0.136.

With `O=C(OCCOCCO)c1ccccc1Nc1cccc(C(F)(F)F)c1` [etofenamate], the cyt c is −0.030.

As for `C#C[C@]1(O)CC[C@H]2[C@@H]3CCC4=CC(=O)CC[C@@H]4[C@H]3CC[C@@]21C` [norethindrone], the cyt c is reported as 0.903 and the “cyt c (composite Z-score vs DMSO mock-treated wells)” value stood at 0.056.

As for `Oc1ccc2c3c1O[C@H]1[C@@H](O)CC[C@@]4(O)[C@@H](C2)N(CC2CCC2)CC[C@]314` [nalbuphine], the cyt c is given as 0.276 and the “cyt c (composite Z-score vs DMSO)” value was −0.613.

`O=C(O)COCCN1CCN(C(c2ccccc2)c2ccc(Cl)cc2)CC1` (stereo not drawn) [cetirizine] had a cyt c of 0.507.

Consider `OCCN1CCN(CCCN2c3ccccc3Sc3ccc(C(F)(F)F)cc32)CC1` [fluphenazine], for which the “cyt c (composite Z-score vs DMSO mock-treated wells)” value was −0.074.

With `CCN[C@H]1C[C@H](C)S(=O)(=O)c2sc(S(N)(=O)=O)cc21` [dorzolamide], the “cyt c (composite Z-score vs DMSO)” value is −0.076.

`CCCc1cc(=O)[nH]c(=S)[nH]1` [propylthiouracil]: the cyt c was 0.762 and 0.717.

As to `CC(C)NCC(O)COc1ccc(CCOCC2CC2)cc1` (stereo not drawn) [betaxolol], the cyt c turned out to be 0.064.

With `CN(C)CCCSC(=N)N` [dimaprit], the “cyt c (composite Z-score)” value is −0.184.

Turning to `OC(Cn1cncn1)(Cn1cncn1)c1ccc(F)cc1F` [fluconazole], the “cyt c (composite Z-score vs DMSO)” value was found to be 0.741.

As for `Cc1cn([C@H]2C[C@H](N=[N+]=[N-])[C@@H](CO)O2)c(=O)[nH]c1=O` [zidovudine], the cyt c came to 0.611 and the “cyt c (composite Z-score vs DMSO mock-treated wells)” value is on record as 0.637.

As to `C#C[C@]1(O)CC[C@H]2[C@@H]3CCC4=C(CCC(=O)C4)[C@H]3CC[C@@]21C` [norethynodrel], the cyt c was −0.145 and the “cyt c (composite Z-score vs DMSO mock-treated wells)” value was −0.058.

Consider `CC(C)(C)c1ccc(C(O)CCCN2CCC(C(O)(c3ccccc3)c3ccccc3)CC2)cc1` (stereo not drawn) [terfenadine], for which the “cyt c (composite Z-score vs DMSO)” value was −0.611.

Regarding `CN(C/C=C/c1ccccc1)Cc1cccc2ccccc12` [naftifine], the cyt c worked out at 0.645.

For `C[C@]12CC[C@H]3[C@@H](CCC4=CC(=O)CC[C@@]43C)[C@@H]1CC[C@@H]2O` [testosterone], the cyt c is reported as −0.787.

In turn, `COc1ccc(C(C)=O)c(O)c1` [paeonol] showed a cyt c of 0.306.

As to `C[C@]12C[C@H](O)[C@H]3[C@@H](CCC4=CC(=O)CC[C@@]43C)[C@@H]1CC[C@@H]2C(=O)CO` [corticosterone], the cyt c is recorded as −0.379.

Turning to `CNCCCC1c2ccccc2C=Cc2ccccc21` [protriptyline], the “cyt c (composite Z-score)” value is listed as −1.335.

On to `O=c1n(CCCN2CCN(c3cccc(Cl)c3)CC2)nc2ccccn12` [trazodone], for which the “cyt c (composite Z-score vs DMSO)” value was 0.028 and 0.038.

In turn, `CC1CS(=O)(=O)CCN1/N=C/c1ccc([N+](=O)[O-])o1` (stereo not drawn) [nifurtimox] returned a cyt c of 0.004.

In turn, `COc1cc(C2Oc3cc([C@H]4Oc5cc(O)cc(O)c5C(=O)[C@@H]4O)ccc3OC2CO)ccc1O` (stereo partly drawn) [silybin] yielded a cyt c of 0.150.

As for `NCCCCCC(=O)O` [aminocaproic acid], the “cyt c (composite Z-score vs DMSO mock-treated wells)” value stood at 0.280.

For `NCCc1c[nH]cn1` [histamine], the “cyt c (composite Z-score vs DMSO)” value was 0.016.

In the case of `O=C(OCc1ccccc1)c1ccccc1` [benzyl benzoate], the “cyt c (composite Z-score vs DMSO)” value is given as 0.394.

In the case of `Cn1c(=O)c2[nH]cnc2n(C)c1=O` [aminophylline], the “cyt c (composite Z-score vs DMSO)” value was 0.177.

The molecule `CCCC1C(=O)N2C(N(C)C)=Nc3ccc(C)cc3N2C1=O` (stereo not drawn) [azapropazone] had a cyt c of 0.418.

The test is the same for the next values; noted with them: composite Z-score vs mock-treated (DMSO) wells; concentration of each compound in μM.
`CCC(NC(C)C)C(O)c1ccc(O)c2[nH]c(=O)ccc12` (stereo not drawn) [procaterol] gave a cyt c of −0.168.

In turn, `C=C[C@H]1CN2CC[C@H]1C[C@H]2[C@H](O)c1ccnc2ccccc12` [cinchonidine] returned a cyt c of −0.164.

On to `CC(O)Cn1cnc2c1c(=O)n(C)c(=O)n2C` (stereo not drawn) [proxyphylline], for which the cyt c was −0.574.

For `COc1ccc(-c2oc3c(CC=C(C)C)c(O[C@@H]4O[C@H](CO)[C@@H](O)[C@H](O)[C@H]4O)cc(O)c3c(=O)c2O[C@@H]2O[C@@H](C)[C@H](O)[C@@H](O)[C@H]2O)cc1` [icariin], the cyt c is listed as 0.073.

As to `CCCCc1cc2ccccc2c(OCCN(C)C)n1` [dimethisoquin], the cyt c was −1.006.

`CN1CCCC(n2nc(Cc3ccc(Cl)cc3)c3ccccc3c2=O)CC1` (stereo not drawn) [azelastine] displayed a cyt c of 0.054.

As to `COc1cc(OC)c2c(=O)c(-c3ccc4c(c3)OCO4)coc2c1` [derrustone], the cyt c was 0.470.

In turn, `CN(CCCCCCCCCCN(C)C(=O)Oc1cccc([N+](C)(C)C)c1)C(=O)Oc1cccc([N+](C)(C)C)c1` [demecarium] showed a cyt c of −0.211.

With `CC1(C)O[C@@H]2[C@@H](CO[C@@]3(COS(N)(=O)=O)OC(C)(C)O[C@@H]23)O1` [topiramate], the cyt c was −0.093.

For the molecule `O=C(Cc1cccs1)N[C@@H]1C(=O)N2C(C(=O)[O-])=C(C[n+]3ccccc3)CS[C@H]12` [cephaloridine], the cyt c is recorded as −0.278.

As for `C[C@@H]1O[C@@H](OC[C@H]2O[C@@H](Oc3c(-c4ccc(O)c(O)c4)oc4cc(O)cc(O)c4c3=O)[C@H](O)[C@@H](O)[C@@H]2O)[C@H](O)[C@H](O)[C@H]1O` [rutoside], the cyt c is recorded as −0.012.

Turning to `CC[C@H]1CN2CC[C@H]1C[C@H]2[C@H](O)c1ccnc2ccc(OC)cc12` [hydroquinine], the cyt c is on record as 0.004.

On to `CO/N=C1\CN(c2nc3c(cc2F)c(=O)c(C(=O)O)cn3C2CC2)CC1CN` (stereo not drawn) [gemifloxacin], for which the cyt c came to 0.009.

Consider `COc1ccccc1OCCNCC(O)COc1cccc2[nH]c3ccccc3c12` (stereo not drawn) [carvedilol], for which the cyt c is reported as −4.745.

The same test, now with this note: normalized score (composite Z-score vs DMSO mock-treated wells); compound concentration (μM).
In turn, `CCN[C@@H]1C[C@H](N)[C@@H](O[C@H]2OC(CN)=CC[C@H]2N)[C@H](O)[C@H]1O[C@H]1OC[C@](C)(O)[C@H](NC)[C@H]1O` [netilmicin] showed a cyt c of 0.156.

For `CC(C)NCC(O)COc1ccc(COCCOC(C)C)cc1` (stereo not drawn) [bisoprolol], the cyt c amounted to 0.874.

Take `OCCOCCN1CCN(C(c2ccccc2)c2ccc(Cl)cc2)CC1` (stereo not drawn) [hydroxyzine]: the cyt c turned out to be 0.258.
